Assay results published in ChEMBL document CHEMBL5244211, “Current anti-diabetic agents and their molecular targets: A review” (Eur J Med Chem, 2018).

How the values were obtained:
[1] = molecular target: T1, Free fatty acid receptor 1 (Homo sapiens, UniProt O14842); assay: Agonist activity at human GPR40 expressed in HEK293 cells incubated for 1 hrs by calcium flux assay; assay type: cell-based
[2] = molecular target: Free fatty acid receptor 1 (Rattus norvegicus) (UniProt Q8K3T4); assay: In vivo agonist activity at FFAR1 in streptozotocin (STZ)-induced Wistar rat assessed as reduction in blood glucose AUC at 1 mg/kg,iv and measured upto 120 mins by OGTT analysis; assay type: functional, organism-based; parameters: scale not given: the % may be the effect or the level left
Sequence of Free fatty acid receptor 1 (Rattus norvegicus) (Q8K3T4 whole entry): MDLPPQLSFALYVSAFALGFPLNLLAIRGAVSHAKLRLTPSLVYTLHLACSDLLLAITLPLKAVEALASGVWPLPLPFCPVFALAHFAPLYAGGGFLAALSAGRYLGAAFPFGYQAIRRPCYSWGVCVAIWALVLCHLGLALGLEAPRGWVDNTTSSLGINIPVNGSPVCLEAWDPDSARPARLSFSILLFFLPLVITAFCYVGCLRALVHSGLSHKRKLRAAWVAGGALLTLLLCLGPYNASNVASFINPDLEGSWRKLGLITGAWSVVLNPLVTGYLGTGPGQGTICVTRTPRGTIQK

[3] = molecular target: T1, Free fatty acid receptor 1; assay: Agonist activity at FFAR1 (unknown origin) incubated for 16 hrs by Promoter-luciferase assay
[4] = Oral bioavailability in Wistar rat at 3 mg/kg; assay type: ADME, organism-based; conditions: in vivo
[5] = Clearance in Wistar rat at 1 mg/kg,iv; assay type: ADME, organism-based; conditions: in vivo
[6] = molecular target: Free fatty acid receptor 1 (Rattus norvegicus) (UniProt Q8K3T4); assay: In vivo agonist activity at FFAR1 in iv dosed streptozotocin (STZ)-induced Wistar rat model assessed as reduction in blood glucose AUC and measured upto 120 mins by OGTT analysis; assay type: functional, organism-based

T1 sequence (O14842 whole entry): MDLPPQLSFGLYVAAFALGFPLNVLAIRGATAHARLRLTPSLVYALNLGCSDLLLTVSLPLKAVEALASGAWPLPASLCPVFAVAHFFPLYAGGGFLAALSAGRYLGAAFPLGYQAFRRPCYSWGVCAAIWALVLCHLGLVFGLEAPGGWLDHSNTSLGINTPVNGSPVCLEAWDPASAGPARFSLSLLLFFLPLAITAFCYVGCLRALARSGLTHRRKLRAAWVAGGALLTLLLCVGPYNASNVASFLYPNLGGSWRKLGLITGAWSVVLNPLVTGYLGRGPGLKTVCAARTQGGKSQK

Compound	EC50 [1]	Activity [2]	EC50 [3]	bioavailability [4]	clearance [5]	ED50 [6]
COc1ccc(F)c(-c2ncc(COc3ccc([C@@H](CC(=O)O)C4CC4)cc3)nc2OCCC(F)(F)F)c1	6 nM	–	–	–	–	–
CC#CC(CC(=O)O)c1ccc(OCc2cccc(CN3CCc4oc(C5CC5)nc4C3)c2)cc1 (stereo unspecified)	–	46%	50 nM	45%	0.27 mL/min/kg	0.09 mg/kg
